Measured values taken from patent US6677302B2, “Compositions and methods for the treatment of viral disorders” (The Trustees of Boston University, priority 1996, dated 2004).

Assays:
[1] = test system: Gastric Carcinoma (AGS); assay: Differentiation of tumor cell line; type: cell-based, human
Method: The effects of arginine butyrate compounds on differentiation of several human tumor cell lines were evaluated by visual inspection and by histochemical and pathological staining:
Although HLA antigens are expressed on normal, fully differentiated cells, they are not expressed or are minimally expressed on most neoplastic cells. In this way neoplastic cells escape recognition by the cellular arm of the immune system and are able to survive.

[2] = test system: HIV p24 in co-cultures of human PBMC and Ci11; assay: HIV p24 production, radio-immuno assay; type: cell-based; settings: 72 hours post-cultivation; FIG. 13
Source text: The effect of arginine butyrate on HIV p24 production could be easily studied in co-cultures of human PBMC and Ci11, an HIV infected cell line. […] Despite these encouraging results with a more direct assay than those published previously, the potential risks to HIV+ patients of treatment with arginine butyrate have not been evaluated as these patients were excluded from the protocol (FIG. 13). HIV p24 levels assessed by radio-immuno assay.

[3] = Stability testing of arginine butyrate solution; type: physicochemical; settings: solution for injection
Source text: Butyric acid is a short chain fatty acid present in foods such as dairy products. Arginine is an amino acid which is commonly used in hyperalimentation solutions in hospitals throughout the country. Butyric acid was obtained from Aldrich, catalog number W-212. L-Arginine is anhydrous. Arginine was combined with butyric acid, pH 5.0-5.5, in sterile, non-pyrogenic water for injection to neutralize the fatty acid. The solution was filtered through a Millipore System at a final concentration for injection of 100 mg/ml or 25 mg/ml. Each lot was pyrogen tested and tested for sterility and purity. […] Since 10% arginine butyrate solution is hypertonic (100 mg/ml), it must be infused through a long or deep IV access to avoid peripheral venous irritation. Arginine butyrate was infused via an infusion pump. European pharmacokinetic studies of arginine butyrate given as a “slow” and 90 minute bolus of 500 mls of a 5% solution (2.5 g/M in two normal volunteers, and found a 15 minute elimination period. Plasma levels from patients with hemoglobinopathies have shown that butyric acid disappears within 5 to 15 minutes after an infusion of up to 2,000 mg/kg/day.

[4] = test system: IL-2 receptor; assay: Expression of the IL-2 receptor; type: cell-based
Source text: The IL-2 receptor is a target for therapies currently under development. For example, antibodies directed to the IL-2 receptor and conjugated to a toxin, are currently being tested in the clinic, and IL-2, itself conjugated to a toxin, is currently being tested in the clinic. […] This increased expression might potentiate the therapies under development.

[5] = test system: Myeloid Leukemia (HL60); assay: MIC on cell proliferation, 7 days in culture; type: cell-based, human
Method: (§1) The ability of arginine butyrate to induce differentiation has been evaluated and is measured by inhibition of growth, in some of the neoplastic cell types previously reported to be sensitive to (sodium) butyric acid, and found arginine butyrate to be as potent as butyric acid. We have also extended that work to additional cell types and found Arginine Butyrate to induce differentiation in these new cell types. Table 1 lists the cell types tested and the minimum inhibitory concentration (MIC) of sodium butyrate (NaB) and arginine butyrate (ArgB) on these cell lines. The MIC is the lowest dose that prevents all growth over the 7 days that the cells are maintained in culture, that is the minimum dose that prevents an increase in cell number. […] The […] of ArgB and NaB were equivalent on all cell lines tested.

[6] = test system: Colonic Adenocarcinoma (HT29); assay: MIC on cell proliferation, 7 days in culture; type: cell-based, human
Method: as §1

[7] = test system: Erythroleukemia (K562); assay: MIC on cell proliferation, 7 days in culture; type: cell-based, human
Method: as §1

[8] = test system: Gastric Carcinoma (AGS); assay: MIC on cell proliferation, 7 days in culture; type: cell-based, human
Method: as §1

[9] = test system: Choriocarcinoma (JAR); assay: MIC on cell proliferation, 7 days in culture; type: cell-based, human
Method: as §1

[10] = test system: Glioblastoma Multiforme; assay: MIC on cell proliferation, 7 days in culture; type: cell-based, human
Method: as §1

[11] = test system: Rhabdomyosarcoma; assay: MIC on cell proliferation, 7 days in culture; type: cell-based, human
Method: as §1

[12] = test system: Osteosarcoma (HOS); assay: MIC on cell proliferation, 7 days in culture; type: cell-based, human
Method: as §1

Substance: arginine butyrate
- differentiation marker expression [1]: began to express mucin
- HIV p24 production [2]: significant decrease in p24 production
- stability in glass containers [3]: up to 404 days
- IL-2 receptor expression [4]: increase expression of the IL-2 receptor
- MIC [5]: 78 µM
- MIC [6]: 2,000 μM
- MIC [7]: 1,250 μM
- MIC [8]: 2,000 μM
- MIC [9]: 156 µM
- MIC [10]: 1,000 μM
- MIC [11]: 156 µM
- MIC [12]: 312 µM
